The source made the active and inactive calls. The calls are words filed in the database; no cut-off is given here.
Assays:
GM15850 [1] = test: Induction of FRDA expression in human GM15850 cells derived from Friedreich's ataxia patient assessed as increase in FXN transcription at 100 to 300 nM incubated for 24 hrs by RT-PCR analysis; format: functional, cell-based; conditions: dose 100-300 nM
[2] = Aqueous solubility of compound incubated for 20 mins by HPLC analysis; format: physicochemical; conditions: buffer
GM15850 [3] = test: Induction of FRDA expression in human GM15850 cells derived from Friedreich's ataxia patient assessed as increase in FXN transcription incubated for 24 hrs by RT-PCR analysis; format: functional, cell-based
GM15850 [4] = test: Induction of FRDA expression in human GM15850 cells derived from Friedreich's ataxia patient assessed as increase in FXN transcription at 100 to 1000 nM incubated for 24 hrs in presence of 1.0 to 2.5 mM 2-hydroxypropyl-beta-cyclodextrin adjuvant by RT-PCR analysis; format: functional, cell-based; conditions: dose 100-1000 nM
GM15850 [5] = test: Protective activity against human GM15850 cells derived from Friedreich's ataxia patient assessed as decrease in cytotoxicity at 1 uM incubated for 48 hrs in presence of 1 mM 2-hydroxypropyl-beta-cyclodextrin adjuvant by cell count reagent SF based colorimetric assay; format: functional
GM15850 [6] = test: Cytotoxicity against human GM15850 cells derived from Friedreich's ataxia patient assessed as decrease in cell viability at >300 nM incubated for 48 hrs by cell count reagent SF based colorimetric assay; format: toxicity; conditions: gm15850, 48 h, 0.3 µM
GM15850 [7] = test: Induction of FRDA expression in human GM15850 cells derived from Friedreich's ataxia patient assessed as increase in FXN transcription at >300 nM incubated for 24 hrs by RT-PCR analysis; format: functional, cell-based
GM15850 [8] = test: Protective activity against human GM15850 cells derived from Friedreich's ataxia patient assessed as decrease in cytotoxicity at 1 uM incubated for 48 hrs in presence of 0.2 to 10 mM 2-hydroxypropyl-beta-cyclodextrin adjuvant by cell count reagent SF based colorimetric assay; format: functional

solubility [2] | Compound | Activity (GM15850 [1]) | Activity (GM15850 [3]) | Activity (GM15850 [4]) | Activity (GM15850 [5]) | Activity (GM15850 [6]) | Activity (GM15850 [7]) | Activity (GM15850 [8])
Soluble | Cc1sc2c(c1C)C(c1ccc(Cl)cc1)=N[C@@H](CC(=O)NCCOCCOCCOCCOCCOCCOCCC(=O)NCCCN(C)CCCNC(=O)CCNC(=O)c1nc(NC(=O)CCNC(=O)c3cc(NC(=O)c4nc(NC(=O)CCNC(=O)c5cc(NC(=O)c6nccn6C)cn5C)cn4C)cn3C)cn1C)c1nnc(C)n1-2 | Active | Active |  |  |  |  | 
 | Cc1sc2c(c1C)C(c1ccc(Cl)cc1)=N[C@@H](CC(=O)NCCOCCOCCOCCOCCOCCOCCC(=O)NCCCCCCCNC(=O)CCNC(=O)c1nc(NC(=O)CCNC(=O)c3cc(NC(=O)c4nc(NC(=O)CCNC(=O)c5cc(NC(=O)c6nc(NC(=O)CCCN(C)C)cn6C)cn5C)cn4C)cn3C)cn1C)c1nnc(C)n1-2 |  | inactive |  |  |  |  | 
Soluble | Cc1sc2c(c1C)C(c1ccc(Cl)cc1)=N[C@@H](CC(=O)NCCOCCOCCOCCOCCOCCOCCC(=O)NCCCCCCCNC(=O)CCNC(=O)c1nc(NC(=O)CCNC(=O)c3cc(NC(=O)c4nc(NC(=O)CCNC(=O)c5cc(NC(=O)c6nccn6C)cn5C)cn4C)cn3C)cn1C)c1nnc(C)n1-2 | Active |  | inactive | Active | Toxic | inactive | inactive
 | Cc1sc2c(c1C)C(c1ccc(Cl)cc1)=N[C@@H](CC(=O)NCCOCCOCCOCCOCCOCCOCCC(=O)NCCCN(C)CCCNC(=O)CCNC(=O)c1nc(NC(=O)CCNC(=O)c3cc(NC(=O)c4nc(NC(=O)CCNC(=O)c5cc(NC(=O)c6nc(NC(=O)CCCN(C)C)cn6C)cn5C)cn4C)cn3C)cn1C)c1nnc(C)n1-2 |  | inactive |  |  |  |  | 
